Patent publication US11000033B2, “Ketone or oxime compound, and herbicide” (NISSAN CHEMICAL CORPORATION, priority 2014, dated 2021)

Experiments:
[1] = test system: Echinochloa oryzacola Vasing.; test: Test Example 2: herbicidal activity, application during weed generation in submerged conditions (symbol A); type: in vivo; conditions: Table 23; application herbicide amount 320 g/ha; grade 0-5 by criteria of Test Example 1
Outline: (§1)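 Flooded-soil post-emergence test: emulsion of compound, water-diluted to target rate, applied to paddy water surface at 1–2 leaf stage of mixed-sown weeds (alluvial soil, 4 cm water, 25–30° C. greenhouse); visual rating 3 weeks after application.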

Monochoria vaginalis = test: Test Example 2: herbicidal activity, application during weed generation in submerged conditions (symbol C); type: in vivo; conditions: Table 23; application herbicide amount 320 g/ha; grade 0-5 by criteria of Test Example 1
Outline: as §1

[2] = test system: Echinochloa crus-galli var. crus-galli; test: Test Example 3: herbicidal effect by foliage application, Wagner pot (symbol H); type: in vivo; conditions: application herbicide amount 320 g/ha
Outline: (§2)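 Rating at 3 weeks post-spray, by defined criteria. Treatment: emulsion diluted with water to a predetermined amount, applied evenly to foliage of 14-day-old plants raised in alluvial soil flooded 0.1–0.5 cm deep at 25–30 °C, rice co-sown.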

Leptochloa chinensis = test: Test Example 3: herbicidal effect by foliage application, Wagner pot (symbol D); type: in vivo; conditions: application herbicide amount 320 g/ha
Outline: as §2

Cyperus difformis = test: Test Example 3: herbicidal effect by foliage application, Wagner pot (symbol E); type: in vivo; conditions: application herbicide amount 320 g/ha
Outline: as §2

Digitaria ciliaris = test: Test Example 4: herbicidal effect by soil treatment (symbol F); type: in vivo; conditions: application herbicide amount 320 g/ha
Outline: (§3)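 Seeds were sown in sterilized diluvial soil, covered with about 1.5 cm of soil, and the soil surface was sprayed with a water-diluted emulsion of the compound at a predetermined rate. Plants grew in a greenhouse at 25° C. to 30° C.; effects were scored visually 3 weeks after application.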

Setaria viridis = test: Test Example 4: herbicidal effect by soil treatment (symbol G); type: in vivo; conditions: application herbicide amount 320 g/ha
Outline: as §3

Alopecurus myosuroides = test: Test Example 4: herbicidal effect by soil treatment (symbol J); type: in vivo; conditions: application herbicide amount 320 g/ha
Outline: as §3

Abutilon theophrasti = test: Test Example 4: herbicidal effect by soil treatment (symbol M); type: in vivo; conditions: application herbicide amount 320 g/ha
Outline: as §3

Stellaria media [3] = test: Test Example 4: herbicidal effect by soil treatment (symbol P); type: in vivo; conditions: application herbicide amount 320 g/ha
Outline: as §3

Veronica persica = test: Test Example 4: herbicidal effect by soil treatment (symbol R); type: in vivo; conditions: application herbicide amount 320 g/ha
Outline: as §3

corn = test: Test Example 4: effect on crop by soil treatment (symbol c); type: in vivo; conditions: application herbicide amount 320 g/ha
Outline: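 Sterilized diluvial soil, spot sowing, ~1.5 cm soil cover; greenhouse 25–30° C.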

Stellaria media [4] = test: Test Example 5: herbicidal effect by foliage application, plastic box (symbol P); type: in vivo; conditions: 320 g/ha, 3 weeks after application
Outline: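 Post-emergence spray; diluvial soil (sterilized), ~1.5 cm seed cover; greenhouse 25–30° C; 14-day-old plants; water-diluted emulsion at predetermined dose; visual score at 3 wk post-treatment.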

wheat = test: Test Example 5: effect on crop by foliage application, plastic box (symbol e); type: in vivo; conditions: 320 g/ha, 3 weeks after application
Outline: (§4)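 Diluvial soil, sterilized and boxed (21 × 13 × 7 cm), received spot-sown seed covered by about 1.5 cm soil; plants were then greenhouse-grown at 25–30° C.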

rapeseed = test: Test Example 5: effect on crop by foliage application, plastic box (symbol g); type: in vivo; conditions: 320 g/ha, 3 weeks after application
Outline: as §4

| SMILES | Herbicidal effect grade, A: Echinochloa oryzacola Vasing. [1] | Herbicidal effect grade, C: Monochoria vaginalis (Monochoria vaginalis) | herbicidal effect on H (Echinochloa crus-galli var. crus-galli), grade 0-5 [2] | herbicidal effect on D (Leptochloa chinensis), grade 0-5 (Leptochloa chinensis) | herbicidal effect on E, grade 0-5 (Cyperus difformis) | Herbicidal effect grade, F: Digitaria ciliaris (Digitaria ciliaris) | Herbicidal effect grade, G: Setaria viridis (Setaria viridis) | Herbicidal effect grade, J: Alopecurus myosuroides (Alopecurus myosuroides) | Herbicidal effect grade, M: Abutilon theophrasti (Abutilon theophrasti) | Herbicidal effect grade, P: Stellaria media (Stellaria media [3]) | Herbicidal effect grade, R: Veronica persica (Veronica persica) | Effect on crop grade, c: corn (corn) | P: Stellaria media, herbicidal effect (criteria of Test Example 1) (Stellaria media [4]) | e: wheat, effect on crop (criteria of Test Example 1) (wheat) | g: rapeseed, effect on crop (criteria of Test Example 1) (rapeseed) | melting point [°C] |
| --- | --- | --- | --- | --- | --- | --- | --- | --- | --- | --- | --- | --- | --- | --- | --- | --- |
| CON=C(C)CC1CC(O)=C(c2c(F)cc(Br)cc2OC)C1=O (stereo not shown) [6-096] | 4 (Herbicidal ratio of 70% or higher and lower than 90%) | 0 (Herbicidal ratio of 5% or lower (almost no effect)) | 5 (Herbicidal ratio of 90% or more (almost completely withered)) | 4 (Herbicidal ratio of 70% or higher and lower than 90%) | 5 (Herbicidal ratio of 90% or more (almost completely withered)) | 4 (Herbicidal ratio of 70% or higher and lower than 90%) | 4 (Herbicidal ratio of 70% or higher and lower than 90%) | 3 (Herbicidal ratio of 40% or higher and lower than 70%) | 0 (Herbicidal ratio of 5% or lower (almost no effect)) | 0 (Herbicidal ratio of 5% or lower (almost no effect)) | 0 (Herbicidal ratio of 5% or lower (almost no effect)) | 3 (Herbicidal ratio of 40% or higher and lower than 70%) | 1 (Herbicidal ratio of 5% or higher and lower than 20%) | 3 (Herbicidal ratio of 40% or higher and lower than 70%) | 4 (Herbicidal ratio of 70% or higher and lower than 90%) | 157 to 159 |
| CON=C(C)CC1CC(O)=C(c2c(C)cc(-c3ccccc3)cc2OC)C1=O (stereo not shown) [6-099] | 5 (Herbicidal ratio of 90% or more (almost completely withered)) | 5 (Herbicidal ratio of 90% or more (almost completely withered)) | 5 (Herbicidal ratio of 90% or more (almost completely withered)) | 5 (Herbicidal ratio of 90% or more (almost completely withered)) | 5 (Herbicidal ratio of 90% or more (almost completely withered)) | 5 (Herbicidal ratio of 90% or more (almost completely withered)) | 5 (Herbicidal ratio of 90% or more (almost completely withered)) | 5 (Herbicidal ratio of 90% or more (almost completely withered)) | 3 (Herbicidal ratio of 40% or higher and lower than 70%) | 4 (Herbicidal ratio of 70% or higher and lower than 90%) | 4 (Herbicidal ratio of 70% or higher and lower than 90%) | 5 (Herbicidal ratio of 90% or more (almost completely withered)) | 4 (Herbicidal ratio of 70% or higher and lower than 90%) | 5 (Herbicidal ratio of 90% or more (almost completely withered)) | 5 (Herbicidal ratio of 90% or more (almost completely withered)) | 175 to 177 |
| CON=C(C)CC1CC(O)=C(c2c(OC)cc(C)cc2OC)C1=O (stereo not shown) [6-103] | 5 (Herbicidal ratio of 90% or more (almost completely withered)) | 0 (Herbicidal ratio of 5% or lower (almost no effect)) | 5 (Herbicidal ratio of 90% or more (almost completely withered)) | 5 (Herbicidal ratio of 90% or more (almost completely withered)) | 5 (Herbicidal ratio of 90% or more (almost completely withered)) | 5 (Herbicidal ratio of 90% or more (almost completely withered)) | 5 (Herbicidal ratio of 90% or more (almost completely withered)) | 5 (Herbicidal ratio of 90% or more (almost completely withered)) | 0 (Herbicidal ratio of 5% or lower (almost no effect)) | 0 (Herbicidal ratio of 5% or lower (almost no effect)) | 0 (Herbicidal ratio of 5% or lower (almost no effect)) | 5 (Herbicidal ratio of 90% or more (almost completely withered)) | 1 (Herbicidal ratio of 5% or higher and lower than 20%) | 5 (Herbicidal ratio of 90% or more (almost completely withered)) | 4 (Herbicidal ratio of 70% or higher and lower than 90%) | 171 to 175 |
| CON=C(C)CC1CC(O)=C(c2c(C)cccc2C)C1=O (stereo not shown) [6-112] | 3 (Herbicidal ratio of 40% or higher and lower than 70%) | 0 (Herbicidal ratio of 5% or lower (almost no effect)) | 5 (Herbicidal ratio of 90% or more (almost completely withered)) | 5 (Herbicidal ratio of 90% or more (almost completely withered)) | 4 (Herbicidal ratio of 70% or higher and lower than 90%) | 5 (Herbicidal ratio of 90% or more (almost completely withered)) | 5 (Herbicidal ratio of 90% or more (almost completely withered)) | 5 (Herbicidal ratio of 90% or more (almost completely withered)) | 1 (Herbicidal ratio of 5% or higher and lower than 20%) | 0 (Herbicidal ratio of 5% or lower (almost no effect)) | 0 (Herbicidal ratio of 5% or lower (almost no effect)) | 1 (Herbicidal ratio of 5% or higher and lower than 20%) | 1 (Herbicidal ratio of 5% or higher and lower than 20%) | 4 (Herbicidal ratio of 70% or higher and lower than 90%) | 4 (Herbicidal ratio of 70% or higher and lower than 90%) | 167 to 170 |
